The record followed here is patent publication US9517263B2, “Benzonaphthyridine-containing vaccines” (GlaxoSmithKline Biologicals SA, priority 2009, dated 2016).

Read-outs that look alike come from different tables or passages of the source.

A short description of data set [1]: Compound content, recovery and encapsulation efficiency by RP-HPLC. The data set is classed as physicochemical. The conditions noted are these: pellet vs supernatant after 10 mM HCl, 30 min.
Procedure: Compound 47 was analyzed by Reversed Phase High Performance Liquid Chromatography (RP-HPLC) using a Waters Acquity System using C18 XTerra column (Waters Corporation) and a gradient of 90% water+0.1% TFA/10% acetonitrile+0.1% TFA to 100% acetonitrile+0.1% TFA in 6 min.
To determine Compound 47 concentration, 100 μL of the particle suspension described above was mixed with 900 μL of DMSO and analyzed by RP-HPLC.
To determine encapsulation efficiency, 100 μL of the particle suspension described above was diluted to 1 mL with 10 mM HCl and rocked for 30 min at room temperature. The resulting particle suspension was centrifuged. The pellet was then dissolved in 1 mL DMSO and analyzed on the RP-HPLC system to determine the amount of encapsulated Compound 47. The supernatant was also analyzed on the RP-HPLC system to determine the amount of non-encapsulated Compound 47.
Data set [2] has as its system mKC, MCP-1, IL-6, IL-10, IFNg and IL-5. The experiment in a line: Serum cytokine levels in mice (sandwich ELISA). To be noted: i.m., 1, 3 and 24 hours, formulated in the PLG-based particles. The data set is classed as in vivo. The procedure:
Mice were also injected intramuscularly with above-described monodispersion of Compound 47 at a dose of 100 μg Compound 47. Serum cytokine levels (mKC, MCP-1, IL-6, IL-10, IFNg and IL-5) were measured at 1, 3 and 24 hours using sandwich ELISA.

The subject of another data set is MenB strain NZ98. The experiment in a line: Bactericidal assay of sera of immunized mice against the MenB strain NZ98. To be noted: delivered with PLG as encapsulated or as co-lyophilized, 25 or 100 μg. It is filed as in vivo, N. meningitidis. The procedure: The PLG formulations described above (Vials 1-6) were reconstituted in 1.4 mL of water for injection with gentle mixing. 100 μL of the formulations were injected per mouse, corresponding to 10 μg of each MenB antigen and in case of formulations containing Compound 47, 25 μg or 100 μg of the adjuvant. Each mouse was immunized intramuscularly (50 μL at two sites) on days 0 and 14, and bled on day 28 and on day 56.
For mice injected with MenB antigen, pooled sera for each group was analyzed for bactericidal assay against the MenB strain NZ98 2 weeks post 2nd immunization.
For mice injected with MenB antigen, pooled sera for each group was also analyzed for bactericidal assay against the MenB strain NZ98 6 weeks post 2nd immunization.

The nature of data set [3]: Pharmacokinetic profile of Compound 47 in mice (serum, lymph nodes, muscle; LC-MS). The data set is classed as in vivo. To be noted: i.m. once, 1 or 4 mg/kg, various PLG formulations (Vials 1-5), up to 30 days.
For the next data set, the target named is T1, Human TLR7 (Homo sapiens, UniProt Q9NYK1).
T1 construct: expressed in transfected cells; host or cells: HEK293
T1 sequence (Q9NYK1 27-1049): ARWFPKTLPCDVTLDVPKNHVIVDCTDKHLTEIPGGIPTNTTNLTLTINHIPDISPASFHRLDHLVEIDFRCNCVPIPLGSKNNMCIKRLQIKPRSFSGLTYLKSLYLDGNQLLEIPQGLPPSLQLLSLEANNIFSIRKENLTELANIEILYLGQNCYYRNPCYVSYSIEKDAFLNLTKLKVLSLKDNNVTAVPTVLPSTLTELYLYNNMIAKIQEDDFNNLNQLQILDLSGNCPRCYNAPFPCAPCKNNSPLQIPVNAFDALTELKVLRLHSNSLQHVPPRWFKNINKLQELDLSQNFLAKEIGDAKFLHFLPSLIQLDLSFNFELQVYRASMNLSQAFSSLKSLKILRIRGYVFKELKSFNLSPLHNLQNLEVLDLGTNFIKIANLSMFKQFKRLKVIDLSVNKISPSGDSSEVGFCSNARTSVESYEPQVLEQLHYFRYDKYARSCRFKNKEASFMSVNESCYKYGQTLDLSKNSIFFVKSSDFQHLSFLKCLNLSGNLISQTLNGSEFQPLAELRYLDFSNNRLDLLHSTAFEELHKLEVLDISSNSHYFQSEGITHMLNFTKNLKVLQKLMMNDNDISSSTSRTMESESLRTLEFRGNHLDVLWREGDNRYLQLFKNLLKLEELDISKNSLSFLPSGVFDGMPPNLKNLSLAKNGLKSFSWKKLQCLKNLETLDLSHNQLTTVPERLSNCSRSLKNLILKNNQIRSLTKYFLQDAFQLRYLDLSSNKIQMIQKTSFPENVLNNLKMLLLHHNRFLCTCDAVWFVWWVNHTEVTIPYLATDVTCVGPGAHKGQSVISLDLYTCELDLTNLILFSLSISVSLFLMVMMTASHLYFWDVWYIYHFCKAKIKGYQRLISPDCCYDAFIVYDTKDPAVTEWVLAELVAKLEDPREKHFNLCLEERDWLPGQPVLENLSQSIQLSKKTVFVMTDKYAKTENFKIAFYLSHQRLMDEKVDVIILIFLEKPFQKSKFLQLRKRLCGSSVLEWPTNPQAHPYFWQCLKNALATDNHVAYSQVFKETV
The data set can be described thus: Human TLR7 EC50 in HEK293 (Table A). The data set is classed as cell-based.

Data set [4] is described as follows: Solubility of Compound 6A. It is filed as physicochemical. The conditions noted are these: for solubility: water, read-out: aqueous solubility.

As for `Cc1ccc(CCc2cnc3c(N)nc4ccccc4c3c2)c(C)c1` [Compound 47, 2-(2,4-dimethylphenethyl)benzo[f][1,7]naphthyridin-5-amine], the “amount of Compound 47 encapsulated in PLG particles” value in data set [1] is listed as above 90%. Also, the “serum cytokine levels (mKC, MCP-1, IL-6, IL-10, IFNg and IL-5)” value in data set [2] is recorded as “low serum cytokines”. Besides, the “protection of the immunized mice against strain NZ98” value in the data set with MenB strain NZ98 is recorded as “significantly enhances the protection”. For the same compound, the “level of Compound 47 in serum” value in data set [3] was below 1000 nM.
With `COc1ccc(CCc2cnc3c(N)nc4cc(C(O)(P(=O)(O)O)P(=O)(O)O)ccc4c3c2)c(C)c1` [Compound 19A], the EC50 (in general, the concentration giving half of the maximal effect) at Human TLR7 came out at 23700 nM.
With `Cc1ccc2c(c1)nc(N)c1ncc(CCc3ccc(OCCOCCOCCC(F)(F)P(=O)(O)O)cc3C)cc12` [Compound 6A, 3-(2-(2-(4-(2-(5-amino-8-methylbenzo[f][1,7]naphthyridin-2-yl)ethyl)-3-methylphenoxy)ethoxy)ethoxy)-1,1-difluoropropylphosphonic acid], the solubility in dichloromethane result in data set [4] (dichloromethane) is “not soluble in dichloromethane”. The solubility (usually how much of the substance goes into solution per volume) in data set [4] (as base form) is below 400 µg/mL; in data set [4] (pH 7, as a sodium salt), above 4000 µg/mL.
